Measurements: ChEMBL document CHEMBL1201862, “PubChem BioAssay data set” (2004)
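A five-concentration, 48-hour dose response in 96-well plates underlies each endpoint, interpolated linearly between surrounding concentrations. Here, GI50 denotes the concentration required for 50% inhibition of growth.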 Calls of active or inactive are those of the source. Cut-off read from the data, not from the text of the source: active = GI50 up to about 1.1 µM and inactive = higher.

Key:
Experiment in all cases: inhibition of tumour cell growth, NCI panel, 48 h
UACC-62 = system: UACC-62
HOP-92 = system: HOP-92
SN12C = system: SN12C
SNB-19 = system: SNB-19
OVCAR-3 = system: OVCAR-3
OVCAR-5 = system: OVCAR-5
SK-OV-3 = system: SK-OV-3
EKVX = system: EKVX
SW-620 = system: SW-620
SK-MEL-28 = system: SK-MEL-28
SK-MEL-2 = system: SK-MEL-2
SF-268 = system: SF-268
Hs-578T = system: Hs-578T
OVCAR-8 = system: OVCAR-8
MDA-MB-435 = system: MDA-MB-435
NCI-H23 = system: NCI-H23
SR = system: SR
PC-3 = system: PC-3
K562 = system: K562
HCT-116 = system: HCT-116

SMILES | GI50 (UACC-62) | GI50 (HOP-92) | GI50 (SN12C) | GI50 (SNB-19) | GI50 (OVCAR-3) | GI50 (OVCAR-5) | GI50 (SK-OV-3) | GI50 (EKVX) | GI50 (SW-620) | GI50 (SK-MEL-28) | GI50 (SK-MEL-2) | GI50 (SF-268) | GI50 (Hs-578T) | GI50 (OVCAR-8) | GI50 (MDA-MB-435) | GI50 (NCI-H23) | GI50 (SR) | GI50 (PC-3) | GI50 (K562) | GI50 (HCT-116)
CN(C)c1ccc(C=c2c3cc(O)ccc3n3c2cc(-c2ccccc2)[n+]3C)cc1 | 1.36 µM (inactive) | 1.13 µM (inactive) | 0.33 µM (active) | 0.369 µM (active) | 0.746 µM (active) | 4.82 µM (inactive) | 3.08 µM (inactive) | 1.96 µM (inactive) | 1.22 µM (inactive) | 1.06 µM (active) | 1.27 µM (inactive) | 0.446 µM (active) | 0.333 µM (active) | 0.76 µM (active) | 0.964 µM (active) | 1.08 µM (active) | 0.568 µM (active) | 0.9 µM (active) | 0.428 µM (active) | 1.39 µM (inactive)
CC1(C)OCC(C2OC3OC(C)(C)OC3C2N)O1 (stereo not given) | > 100 µM (inactive) | > 100 µM (inactive) | > 100 µM (inactive) | > 100 µM (inactive) | > 100 µM (inactive) | > 100 µM (inactive) | > 100 µM (inactive) | > 100 µM (inactive) | > 100 µM (inactive) | > 100 µM (inactive) | > 100 µM (inactive) | > 100 µM (inactive) | > 100 µM (inactive) | > 100 µM (inactive) | > 100 µM (inactive) | > 100 µM (inactive) | > 100 µM (inactive) | > 100 µM (inactive) | > 100 µM (inactive) | > 100 µM (inactive)
Cn1c(=O)c2c(nc3[nH]c(=O)c(Br)cn32)n(C)c1=O | > 100 µM (inactive) | > 100 µM (inactive) | > 100 µM (inactive) | > 100 µM (inactive) | > 100 µM (inactive) | > 100 µM (inactive) | > 100 µM (inactive) | 93.8 µM (inactive) | > 100 µM (inactive) | > 100 µM (inactive) | > 100 µM (inactive) | > 100 µM (inactive) | > 100 µM (inactive) | > 100 µM (inactive) | > 100 µM (inactive) | > 100 µM (inactive) | > 100 µM (inactive) | > 100 µM (inactive) | > 100 µM (inactive) | > 100 µM (inactive)
